From PubChem BioAssay AID1117319 (Southern Research Institute, 2015)
pIC50: −log10 of the molar value. Records with an inconclusive call do not appear.

The compounds below were run against Virion infectivity factor (Human immunodeficiency virus type 1 group M subtype B (isolate BH10)) + Virion infectivity factor (Human immunodeficiency virus type 1 group M subtype B (isolate BRU/LAI)) + Virion infectivity factor (Human immunodeficiency virus type 1 group M subtype B (isolate PCV12)) + Virion infectivity factor (Human immunodeficiency virus type 1 group M subtype B (isolate HXB2)) + DNA dC->dU-editing enzyme APOBEC-3G (Homo sapiens) (UniProt P69720+P69721+P69722+P69723+Q9HC16) (assay: inhibitors of Vif binding to APOBEC3G peptide, primary screen, biochemical, TR-FRET, GST-Vif 1-94, biotin-A3G peptide, dose response retest (AID 1117319);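 note: Vif residues 1-94 fused to GST binding biotinylated APOBEC3G peptide 110-148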).
Compound Cn1cccc1/C=C1/C(=O)NC(=S)N(Cc2ccc(F)cc2)C1=O has a pIC50 of 5.91. With CC(=O)Nc1ccc(N/C=C/C(=O)C(C)(C)C)cc1 the pIC50 was 4.39. Work on CC1=CC(C)(C)Nc2ccc(OC(=O)CN3C(=O)c4cccc5cccc(c45)C3=O)cc21 yielded a pIC50 of 5.70. In the case of C/C(N)=C(/C#N)C(=O)CSc1nnc(Nc2c(C)cccc2C)s1, the pIC50 was 4.76. With Cc1ccc(Nc2cnn(C34CC5CC(CC(CC(=O)O)(C5)C3)C4)c(=O)c2Cl)cc1C the pIC50 was 4.02. Compound COc1ccc(NC(=O)/C(C#N)=C\c2ccc(Br)o2)cc1 has a pIC50 of 5.20. For Cc1ccc2c(c1)C1C=CCC1C(C(=O)O)N2 (stereo not given), the pIC50 was 6.02. O=C(OC1CCCCC1)c1ccc2c(c1)C1C=CCC1C(C(=O)O)N2 (stereo not given) showed a pIC50 of 6.29. In the case of COc1ccc(NS(=O)(=O)c2cccc(Cl)c2Cl)cc1S(=O)(=O)N1CCCCC1, the pIC50 was 4.12. Compound O=C(O)C1Cc2ccccc2N2CCCC12 (stereo not given) has a pIC50 of 4.82. O=C(O)C1Nc2c(Cl)cc(Cl)c(Cl)c2C2C=CCC12 (stereo not given) was tested, and the pIC50 was 4.52. Work on CS(=O)(=O)N(CC(=O)Nc1ccc2c(c1)OCO2)Cc1ccccc1 yielded a pIC50 of 4.02. COc1ccc2c3c(cccc13)N(C)N=C2C showed a pIC50 of 5.37. Work on O=C(Cc1cc(=O)[nH][nH]1)N/N=C/C=C/c1ccccc1 yielded a pIC50 of 4.58. Compound CCc1ccc(N2C(=O)NC(=O)/C(=C\C=C\c3ccco3)C2=O)cc1 has a pIC50 of 5.15. With CN(C)c1ncc(C2=C(Cl)C(=O)C(N3CCCC3)=C(Cl)C2=O)s1 the pIC50 was 6.42. C=C(C)C(=O)Nc1cccc(C2=NOC3(C2)C[C@@H](C(N)=O)N(C(=O)CC(c2ccccc2)c2ccccc2)C3)c1 (stereo not given in full) was tested, and the pIC50 was 5.51. CCOC(=O)c1sc2nc(CC(=O)OC)nc(NCc3ccco3)c2c1C was tested, and the pIC50 was 5.61. Work on Cc1ccc(C)c(/C(O)=C2/C(=O)C(=O)N(CCN3CCOCC3)C2c2ccco2)c1 (stereo not given) yielded a pIC50 of 4.74. CC[n+]1c(/C=C2\C=C(C)CC(C)(C)C2)sc2ccccc21 was tested, and the pIC50 was 4.24. For O=C(O)C1OC(Oc2c(-c3ccc(O)c(O)c3)oc3cc(O)cc(O)c3c2=O)C(O)C(O)C1O (stereo not given), the pIC50 was 5.57. For CN(C)c1ccc(N2C(=O)CSC2=S)cc1, the pIC50 was 5.08. Work on Fc1ccccc1/C=C1\CCCC2=C1Nc1ncnn1C2c1ccccc1F (stereo not given) yielded a pIC50 of 4.42. Cc1cc(C(=O)CSc2nc3ccccc3c(=O)[nH]2)c(C)n1C showed a pIC50 of 4.50. In the case of CC1=Nc2cccc3cccc(c23)N1, the pIC50 was 6.28. Compound O=C(CCc1c[nH]c2ccccc12)N1CCN(c2ccc(O)cc2)CC1 has a pIC50 of 4.88. For Cc1ccc2c(c1)c1ccc3c(c1n2C)C(=O)C=CC3=O, the pIC50 was 5.40. In the case of O=C(CSc1nnc(-c2ccco2)c(-c2ccco2)n1)Nc1ccccc1, the pIC50 was 5.51. O=C(OCC1O[C@@H](OC(=O)c2cc(O)c(O)c(O)c2)[C@@H](OC(=O)c2cc(O)c(O)c(O)c2)[C@@H](OC(=O)c2cc(O)c(O)c(O)c2)[C@@H]1OC(=O)c1cc(O)c(O)c(O)c1)c1cc(O)c(O)c(O)c1 (stereo not given in full) was tested, and the pIC50 was > 6.71. O=C(NCc1ccccn1)c1ccc2nc(-c3ccco3)c(-c3ccco3)nc2c1 gave a pIC50 of 6.35. Work on O=C(c1cc(-c2ccco2)on1)N1CCN(c2ccccc2)CC1 yielded a pIC50 of 4.51. Cc1onc(-c2c(F)cccc2Cl)c1C(=O)Nc1nnc(C2CC2)s1 showed a pIC50 of 4.97. COc1cc(C2C(C#N)=C(N)N(c3cccnc3)C3=C2C(=O)CCC3)ccc1O (stereo not given) showed a pIC50 of 4.87. Work on CN(C(=O)COC(=O)c1cc(-c2ccco2)nc2ccccc12)C1CCS(=O)(=O)C1 (stereo not given) yielded a pIC50 of 5.84. For CNCc1ccccc1Sc1ccc(O)c(O)c1, the pIC50 was 5.58. CCN(CC)c1ccc(/C=N/n2c(C)cc(C)cc2=O)cc1 showed a pIC50 of 5.78. CCCCOc1ccc(C(=O)NCC(=O)NCC(=O)OCC)cc1 was tested, and the pIC50 was 4.11. With CC1=CC(C)(C)Nc2ccc(OC(=O)c3cccnc3)cc21 the pIC50 was 4.52. With COc1cccc(C2NC(=O)NC(O)(C(F)(F)F)C2C(=O)c2cccnc2)c1OC (stereo not given) the pIC50 was 4.33. In the case of Cc1ccsc1C=Nc1ccc(O)cc1, the pIC50 was 4.77. CCNc1ccc(Br)cc(C(=O)/C=C/c2ccc(Cl)cc2)c1=O was tested, and the pIC50 was 5.15. For CN(C1=C(NC(=O)c2ccc(Cl)cc2)C(=O)c2ccccc2C1=O)c1ccccc1, the pIC50 was 4.28. O=C1NC(=S)N(c2ccc(F)cc2)C(=O)/C1=C\c1ccoc1 gave a pIC50 of 4.73. Oc1ccc2c(c1)C1CCCC1(N1CCOCC1)O2 (stereo not given) was tested, and the pIC50 was 5.37. For COc1ccc2nc(NNC(=O)c3cc(=O)c4ccccc4o3)sc2c1, the pIC50 was 4.57. With CN(C)c1ccc(O)c2c1CC1CC3[C@@H](N(C)C)C(=O)C(C(N)=O)=C(O)[C@]3(O)C(=O)C1=C2O (stereo not given in full) the pIC50 was 5.97. Work on CN(C)c1nc(N)nc(CSc2nc3c(c(=O)n(C)c(=O)n3C)n2Cc2ccccc2F)n1 yielded a pIC50 of 4.22. CC1(OC(=O)CCc2ccccc2)C(=O)C=C2C=C(c3ccsc3)OC=C2C1=O (stereo not given) gave a pIC50 of 5.33. CC(C)c1ccc(/C=C/C(=O)N2CCc3ccccc3C2)cc1 was tested, and the pIC50 was 4.75. CC(=O)N1CCN(c2ccc(NCc3ccc4c(c3)OCO4)cc2)CC1 was tested, and the pIC50 was 5.42. COC(=O)CCCC(=O)Nc1c(F)c(F)c(F)c(F)c1F was tested, and the pIC50 was 4.61. CC(/C=C/c1ccco1)=N\NC(=O)c1cccnc1 gave a pIC50 of 4.69. Work on O=[N+]([O-])c1ccccc1S(=O)(=O)NC1CCCC1 yielded a pIC50 of 4.89. O=C(/C=C/c1ccco1)NC(=S)Nc1ccc(C(=O)O)cc1 gave a pIC50 of 4.79. O=S(=O)(O)c1cc(O)c2ccc(Nc3ccccc3)cc2c1 showed a pIC50 of 5.86. COc1ccc(C2=NOC(C(=O)NCc3cccs3)C2)cc1OC (stereo not given) gave a pIC50 of 4.05. In the case of CCOc1ccccc1NC(=O)CCS(=O)(=O)c1ccc(Br)cc1, the pIC50 was 5.12. Work on CC(=O)NN1C(=O)/C(=C/c2ccc(Br)o2)SC1=S yielded a pIC50 of 4.93. COc1ccc(N2CCN(C(=O)COc3ccccc3)CC2)cc1 showed a pIC50 of 4.11. In the case of Cc1cc(C)cc(N(CC(=O)NCc2cccnc2)S(C)(=O)=O)c1, the pIC50 was 4.44. For COC(=O)c1ccccc1NC(=O)C1CCCC1, the pIC50 was 6.26. For O=C1c2ccccc2C(=O)N1OCCOCCOCCBr, the pIC50 was 4.03. With S=c1nc(-c2ccc(Br)cc2)oc2c1CCCC2 the pIC50 was 4.21. CCCN1C(=O)S/C(=C\c2ccc(N3CCOCC3)cc2C)C1=O was tested, and the pIC50 was 4.63. In the case of Oc1cc2c(cc1O)[C@@H](c1ccccc1)CNCC2, the pIC50 was 4.32. O=C(O)CSc1c2c(nc3cc(C(=O)N4CCOCC4)ccc13)CCCC2 was tested, and the pIC50 was 5.25. CC(=O)N(C1=C(Cl)C(=O)c2ccccc2C1=O)c1ccc(C(=O)O)cc1 showed a pIC50 of 4.22. In the case of O=C(O)CCc1ccc(S(=O)(=O)Nc2cc(C(F)(F)F)ccc2N2CCCC2)cc1, the pIC50 was 4.84. CCc1cccc(NC(=O)CCCCCC2NC(=O)NC2C)c1 (stereo not given) showed a pIC50 of 6.33. In the case of O=[N+]([O-])c1ccccc1NC(=S)N/N=C/c1ccc(O)c(O)c1, the pIC50 was 5.39. With Cc1ccc(-c2c3c([nH]c(=S)c2C#N)CCCC3)o1 the pIC50 was 4.86. Compound O=S(=O)(Nc1nccs1)c1ccc(Nc2nnc(-c3ccccc3)c3ccccc23)cc1 has a pIC50 of 4.07. Compound CN1CCc2cccc3c2[C@@H]1Cc1ccc(O)c(O)c1-3 has a pIC50 of 5.78. CCOc1cc(N2CCOCC2)c(OCC)cc1NC(=O)CSc1ncn[nH]1 gave a pIC50 of 4.93. COc1ccc(NC(=O)c2cc(-c3ccco3)nc3ccccc23)cc1S(=O)(=O)N1CCOCC1 showed a pIC50 of 5.62. CCN(CC)CCN1C(=O)c2ccccc2NC1c1ccc(N(C)C)cc1 (stereo not given) showed a pIC50 of 4.05. Cc1ccc(N2C(=O)/C(=C/c3ccc(CN(CCC#N)S(C)(=O)=O)o3)C(=O)NC2=S)cc1 was tested, and the pIC50 was 5.08. O=C(O)/C(=C/c1ccco1)NC(=O)c1ccccc1 gave a pIC50 of 4.71. O=C1/C(=C/C=C/c2ccco2)SC(=S)N1c1ccc(O)cc1 showed a pIC50 of 5.59. Work on CSc1nc(NCCOCCO)c2sc3nc(-c4ccco4)c4c(c3c2n1)CCC4 yielded a pIC50 of 5.85. Cc1ccc(C)c2[nH]c(=O)c(CN(Cc3ccc4c(c3)OCO4)Cc3nnnn3Cc3ccco3)cc12 showed a pIC50 of 4.91. In the case of COc1cc(C(=O)OCCN2CCCCC2)ccc1O, the pIC50 was 4.34. Work on CC(C)OP(=O)(OC(C)C)C(O)c1ccc(N(C)C)cc1 (stereo not given) yielded a pIC50 of 4.12. Work on O=C1CCCC(O)=C1N=Nc1cccc(C(=O)O)c1 yielded a pIC50 of 5.25. In the case of CC1CC(=O)c2c(cc3c(-c4c(O)cc(O)c5c(O)c6c(cc45)OC(C)CC6=O)c(O)cc(O)c3c2O)O1 (stereo not given), the pIC50 was 6.39. Work on O=C(/C=C/c1cccs1)N1CCN(c2ccc(O)cc2)CC1 yielded a pIC50 of 4.68. O=C(NCC1CCCO1)c1cc(-c2ccco2)nc2ccccc12 (stereo not given) showed a pIC50 of 4.84. Compound COc1ccc(N2CCN(c3nc4ccccc4nc3NS(=O)(=O)c3ccccc3)CC2)cc1 has a pIC50 of 4.18. In the case of O=C1C2C3CCCC3=C3CCCC3C2C(=O)N1c1ccccc1 (stereo not given), the pIC50 was 5.46. N#CC1=C(N)OC2=C(CCC/C2=C/c2ccoc2)C1c1ccoc1 (stereo not given) gave a pIC50 of 5.58. Cc1cc(C(=O)CSc2nnnn2C)c(C)n1CCc1ccc(Cl)cc1 was tested, and the pIC50 was 4.53. NS(=O)(=O)c1ccc2c(c1)C1C=CCC1C(C1CC=CCC1)N2 (stereo not given) was tested, and the pIC50 was 5.47. O=C1NC(=O)N(c2ccccc2)C(=O)/C1=C\c1ccc([N+](=O)[O-])s1 was tested, and the pIC50 was 4.87. Work on Nc1cc(N)nc(SCc2cc([N+](=O)[O-])cc3c2OCOC3)n1 yielded a pIC50 of 4.13. O=[N+]([O-])c1cc(/C=N\Nc2nccs2)ccc1O showed a pIC50 of 5.79. Work on O=C(Nc1ccccc1F)c1coc(=O)c(Br)c1 yielded a pIC50 of 5.15. With COc1ccc(NC(=O)Nc2cccs2)cc1OC the pIC50 was 4.46. CC(C)(CS(=O)(=O)[O-])NC(=O)CC[N+](C)(C)CCO showed a pIC50 of 5.82. In the case of COc1ccc2c(c1)c1ccc3c(c1n2C)C(=O)C=CC3=O, the pIC50 was 5.62. For COCCNC(=O)c1ccc(CS(=O)(=O)c2c(Cl)cccc2Cl)o1, the pIC50 was 4.40. With Cc1c(Br)c(O)c(Br)c2sc(=O)oc12 the pIC50 was 5.75. With O=C1NC(c2ccc(Br)cc2)=N/C1=C/c1ccco1 the pIC50 was 5.13. With NC(=O)C[C@@H]1N[C@]2(C(=O)Nc3ccccc32)[C@@H]2C(=O)N(c3cc(C(F)(F)F)ccc3Cl)C(=O)[C@H]12 the pIC50 was 4.26. Work on CCN(CC)c1ccc(C=Nc2ccc(N(C)C)cc2)c(O)c1 yielded a pIC50 of 4.45. Compound COc1ccccc1-n1c(-c2cc(-c3ccco3)[nH]n2)n[nH]c1=S has a pIC50 of 5.51. For CC(C)c1ccc(S(=O)(=O)/N=C2/C=CC(=O)c3ccccc32)cc1, the pIC50 was 5.27. Work on Cc1cc([N+](=O)[O-])cc2c1NC(c1ccccn1)C1CC=CC21 (stereo not given) yielded a pIC50 of 5.52. Compound COc1cccc(-c2nn3c(-c4ccccn4)nnc3s2)c1 has a pIC50 of 4.09. NC(CO)C(=O)NNCc1ccc(O)c(O)c1O (stereo not given) gave a pIC50 of 5.83. For Cc1cc(/C=C2\C(=O)NC(=O)N(Cc3ccco3)C2=O)c(C)n1-c1ccc(O)cc1, the pIC50 was 5.23.
